Source: ChEMBL document CHEMBL1159263, “Cyclic peptides from higher plants, Part 15. Pseudostellarin H, a new cyclic octapeptide from Pseudostellaria heterophylla” (J Nat Prod, 1995)
Peptide text beside a SMILES is read from it.

Target: T1, Tyrosinase (Homo sapiens) (UniProt P14679)
T1 sequence (whole entry): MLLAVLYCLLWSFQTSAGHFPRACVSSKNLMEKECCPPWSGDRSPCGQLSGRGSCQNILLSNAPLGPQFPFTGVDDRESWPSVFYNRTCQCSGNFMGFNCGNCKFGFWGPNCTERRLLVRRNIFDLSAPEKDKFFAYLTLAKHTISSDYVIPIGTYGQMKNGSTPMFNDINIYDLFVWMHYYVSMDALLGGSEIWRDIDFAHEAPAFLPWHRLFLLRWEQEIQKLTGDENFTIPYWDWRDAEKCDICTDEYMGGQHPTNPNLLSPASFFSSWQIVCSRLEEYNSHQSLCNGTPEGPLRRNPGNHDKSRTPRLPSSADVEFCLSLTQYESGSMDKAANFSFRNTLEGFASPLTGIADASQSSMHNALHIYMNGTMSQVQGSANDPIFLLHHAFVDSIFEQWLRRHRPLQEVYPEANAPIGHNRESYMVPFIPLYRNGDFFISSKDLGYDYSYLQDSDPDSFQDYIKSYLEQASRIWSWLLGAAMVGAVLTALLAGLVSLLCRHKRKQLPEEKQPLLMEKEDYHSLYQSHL
Experiment: Inhibition of tyrosinase at 800 uM by dopachrome method

inhibition: 15%
SMILES: CC(C)C[C@@H]1NC(=O)[C@@H]2CCCN2C(=O)[C@H]([C@@H](C)O)NC(=O)[C@@H]2CCCN2C(=O)[C@H]([C@@H](C)O)NC(=O)CNC(=O)[C@H](Cc2ccccc2)NC(=O)[C@H](Cc2ccccc2)NC1=O (cyclo(FFGTPTPL))
